Key:
[1] = tested on: human neonatal fibroblasts; assay: Matrigel invasion assay for migratory ability; format: cell-based; conditions: 30 ng/mL; 24 hrs; fibroblasts starved 2 days, 1% foetal calf serum; ± standard deviation, two replicate experiments
From the text: Matrigel invasion chambers provide cells with the conditions that allow assessment of their invasive property in vitro. The Matrigel invasion chambers consists of a cell culture companion plate with cell culture inserts containing an 8 micron pore size PET membrane with a thin layer of Matrigel Basement Membrane Matrix. The Matrigel matrix serves as a reconstituted basement membrane in vitro. The layer occludes the pores of the membrane, blocking non-invasive cells from migrating through the membrane. In contrast, invasive cells are able to detach themselves from and invade through the Matrigel matrix and the 8 micron membrane pores. The membrane may be processed for light and electron microscopy and can be easily removed after staining.
The chambers were used according to the manufacturer's instructions, as described below in two studies, to assess the effects of Compounds 1, 2, 5 and 42 on migration of human neonatal fibroblasts. The first study assessed effects of three concentrations (0, 10 and 30 ng/mL) of Compound 1 on neonatal fibroblasts in wells containing media with 10% foetal calf serum. The second study used two concentrations (0 and 30 ng/mL) for each of Compounds 1, 2, 5 and 42 to examine effects on migration of neonatal fibroblasts starved for 2 days prior to treatment and then transferred to media with 1% foetal calf serum.
The package containing the chambers was removed from −20° C. storage and allowed to come to room temperature. Warm (37° C.) bicarbonate based culture medium was added to the interior of the inserts (500 μL) and bottom of wells (750 μL). The chambers containing the Matrigel were allowed to rehydrate for 2 hours in humidified tissue culture incubator, 37° C., 5% CO2 atmosphere. After rehydration, the medium was carefully removed by aspiration without disturbing the layer of Matrigel™ Matrix on the membrane.
Cells were harvested, and resuspended at 20,000 cells per mL. A total of 250 μL of the cell suspension was placed into the interior of the insert (5,000 cells). An extra 250 μL media containing the respective Compounds was then added to the interior of the insert to give the desired final concentrations for each of the two studies. A total of 750 μL of media containing appropriate concentrations of each compound in each treatment were placed in the well under the appropriate insert. The Matrigel chambers were then incubated for 24 hours in a humidified tissue culture incubator, at 37° C., 5% CO2 atmosphere.
Non-invading cells were removed from the upper surface of the membrane by “scrubbing”. A cotton tipped swab was dipped into the insert after removal of the media, and firm pressure applied while the tip was moved over the membrane surface. The scrubbing was repeated with a second swab moistened with PBS. Cells that had invaded to the external surface of the insert were then fixed by placing in […] of 100% methanol for at least 5 mins. Inserts were then transferred to a companion plate containing 500 μL of 0.1% crystal violet in methanol, and stained for at least 15 mins. Inserts were destained by passage through 3 companion plates containing 500 μL water, before being air dried.
The following day, the membrane was removed from the insert housing by inverting the insert and inserting the tip of a sharp scalpel blade through the membrane at the edge adjacent to the housing wall. The insert housing was rotated against the stationary blade and the membrane was released. […]

[2] = tested on: human peripheral blood monocytes; assay: Differentiation of monocytes into macrophages; format: cell-based; conditions: 10-fold dilutions; 4 days; adherence and morphology
Description: To determine potential effects of Compound 1 and fifteen other epoxy-tigliane compounds in the array on monocyte differentiation, human peripheral blood mononuclear cells (PBMCs) were isolated by Ficoll-Paque sedimentation of heparinised blood from a human donor, and plated at 100,000 cells/well in RPMI-1640 10% FCS. Duplicate wells were treated with 10-fold dilutions of the compounds and incubated at 37° C. for 4 days. The wells were scored visually for cell attachment and morphology, then washed twice with PBS, stained with sulfurhodamine and the incorporate stain quantitated in an ELISA reader. The plates were then washed with water and stained with 1% crystal violet in methanol for photography and scoring of adherent cell morphology.

[3] = tested on: human peripheral blood mononuclear cells (PBMCs); assay: Cytokine production by PBMCs (Cytometric Bead Array); format: cell-based; conditions: 24 hr, ± standard deviation
From the text: Specific cytokines play critical roles in wound healing processes, and agents that modulate these substances may be useful in treating wounds and/or improving the cosmetic outcomes of healing (e.g. reduced scarring). The effects of Compounds 1, 2, 5 and 42 on regulation of four cytokines (IL-1β, IL-6, IL-8 and TNFα) known to be critical in early stages of the wound healing process were investigated in human peripheral blood mononuclear cells (PBMCs).
PBMCs were isolated by Ficoll-Paque sedimentation of heparinised blood acquired from both a person (Donor 1) and (Donor 2) human donor. All cells were cultured in 10% FCS, RPMI as detailed previously.
PBMCs were seeded at a density of 1.5×10^5 cells per well in 10% FCS, RPMI. Stimulation of these cells with the four compounds was performed at four concentrations (0 ng/mL, 3 ng/mL, 30 ng/mL, 300 ng/mL) in duplicate for 24 h in a humidified incubator at 37° C., 5% CO2. Media samples were taken from each of the required wells and frozen at −80° C. until use.
Cytometric Bead Array (CBA) assays were used to measure the results. CBA assays provide a method for capturing a soluble analyte or set of analytes using antibody coated beads of known sizes and fluorescence. Detection is then performed using another fluorescently labelled secondary antibody to form a sandwich complex. Each media sample was assayed for the presence of soluble […], IL-6, IL-8, IL-10, IL-12p70 and TNFα using a BD (Becton Dickinson) CBA Human Inflammatory Cytokine Detection Kit according to manufacturers' instructions. Mean fluorescence intensity values from each sample were compared against a standard curve to determine cytokine concentrations (pg/mL).

mouse skin = assay: Acute inflammatory response in mouse skin; format: in vivo; conditions: male nude mice, s.c. 50 μL of 100 μg/mL; for scarring of the healed site: 14 days; for diameter of affected area of skin: by 24 hr
Description: Male nude mice were injected subcutaneously on each flank with 50 μL of solutions of 100 μg/mL of Compounds 1, 2, 5 and 42 respectively in 20% propylene glycol. Each site reddened within 4 hr and by 24 hr the affected area covered approximately 1 cm diameter of skin.

[4] = tested on: human neonatal fibroblasts; assay: Scratch closure, human neonatal fibroblasts, Method 2; format: cell-based
Description: (§1) The ability of early. passage neonatal foreskin fibroblasts (NFF) cultured in RPMI 1640-10% foetal calf serum to migrate across a scratch wound made in a confluent monolayer following treatment with purified compounds or plant extracts was determined using one or more of the following three methods.
Cells were seeded in 6 mm wells (96-well plates) or 16 mm (24-well plates), with 2 to 6 replicate wells/dilution, and treated as in Method 1. Immediately after treatment, the scratch edges were outlined on the underside of the well with a fine point felt pen. After fixing and staining, migration was assessed under the microscope with the aid of a graticule, scoring migration as 0, 25, 50, 75 or 100% (total closure) of the initial width. Accelerated wound closure was considered to be significant if mean quartile of replicates was […] that of untreated controls (p<0.05, t-test). In addition, “wound” areas were created by seeding cells in the presence of 3 mm stainless steel pins (96-well plate), or by inserting flat-edged Teflon rings. These devices were removed after overnight incubation of the NFF cells.

[5] = tested on: human neonatal fibroblasts; assay: Scratch closure, human neonatal fibroblasts, Method 3 (IncuCyte); format: cell-based
Description: as §1
Cells were seeded and treated in 96-well plates as in Method 2 (5 replicate wells per dilution), except that the scratches were made in one action with a tool having 96, 1 mm thick teflon coated pins (Essen Bioscience Woundmaker). The plate was then placed in a 37° C., 5% CO2 humidified atmosphere in an IncuCyte FLR instrument programmed to photograph each well under phase contrast at 3 hr intervals for 42 hours. The software determined the initial scratch boundaries and their rate of closure. Accelerated wound closure was considered to be significant if the initial rate of closure was >10% of the untreated controls.

Molecule | Cell count as % of control (Control = no compounds added) [1] [%] | Differentiation endpoint (endpoint concentration in dilution series for induction of macrophage phenotype) [2] [ng/mL] | IL-1β level ([3]; Donor 1, 3 ng/mL) [pg/mL] | IL-6 level ([3]; Donor 1, 3 ng/mL) [pg/mL] | IL-8 level ([3]; Donor 1, 3 ng/mL) [pg/mL] | TNFα level ([3]; Donor 1, 3 ng/mL) [pg/mL] | IL-1β level ([3]; Donor 1, 30 ng/mL) [pg/mL] | IL-6 level ([3]; Donor 1, 30 ng/mL) [pg/mL] | IL-8 level ([3]; Donor 1, 30 ng/mL) [pg/mL] | TNFα level ([3]; Donor 1, 30 ng/mL) [pg/mL] | IL-1β level ([3]; Donor 1, 300 ng/mL) [pg/mL] | IL-6 level ([3]; Donor 1, 300 ng/mL) [pg/mL] | IL-8 level ([3]; Donor 1, 300 ng/mL) [pg/mL] | TNFα level ([3]; Donor 1, 300 ng/mL) [pg/mL] | IL-1β level ([3]; Donor 2, 3 ng/mL) [pg/mL] | IL-6 level ([3]; Donor 2, 3 ng/mL) [pg/mL] | IL-8 level ([3]; Donor 2, 3 ng/mL) [pg/mL] | TNFα level ([3]; Donor 2, 3 ng/mL) [pg/mL] | IL-1β level ([3]; Donor 2, 30 ng/mL) [pg/mL] | IL-6 level ([3]; Donor 2, 30 ng/mL) [pg/mL] | further results
12,13-di-hexanoyl-6,7-epoxy-4,5,9,12,13,20-hexahydroxy-1-tigliaen-3-one [Compound 42] | 350 ± 101 | 1 | 2.6 ± 0.6 | 8.1 ± 6.4 | 3013 ± 377 | 45.8 ± 55.2 | 16.8 ± 1.2 | 32.1 ± 6.7 | 16389 ± 884 | 271.9 ± 22.4 | 41.3 ± 1.2 | 71 ± 4.6 | 17425 ± 680 | 267.5 ± 11.9 | 21.7 ± 7.5 | 30.4 ± 11.8 | 7885 ± 2516 | 109.5 ± 29.3 | 71.2 ± 6.0 | 23.6 ± 0.8 | IL-8 level ([3]; Donor 2, 30 ng/mL): 28176 ± 37 pg/mL; TNFα level ([3]; Donor 2, 30 ng/mL): 354.2 ± 6.3 pg/mL; IL-1β level ([3]; Donor 2, 300 ng/mL): 137.8 ± 10.9 pg/mL; IL-6 level ([3]; Donor 2, 300 ng/mL): 69.3 ± 1.8 pg/mL; IL-8 level ([3]; Donor 2, 300 ng/mL): 32925 ± 552 pg/mL; TNFα level ([3]; Donor 2, 300 ng/mL): 631.6 ± 16.9 pg/mL; scarring of the healed site (mouse skin): minimal scarring; diameter of affected area of skin (mouse skin): approximately 1 cm
12,13-dibutanoyl-6,7-epoxy-4,5,9,12,13,20-hexahydroxy-1-tigliaen-3-one [Compound 27] | – | – | – | – | – | – | – | – | – | – | – | – | – | – | – | – | – | – | – | – | % closure compared to control ([4]; 1000 ng/mL): 158%; % closure compared to control ([5]; 2000 ng/mL): 130%
CCCCCC(=O)OC1C(C)C2(O)C(C3OC3(CO)C(O)C3(O)C(=O)C(C)=CC32)C2C(C)(C)C12OC(=O)C(C)CC (centres unmarked) [Compound 5, 12-hexanoyl-13-(2-methylbutanoyl)-6,7-epoxy-4,5,9,12,13,20-hexahydroxy-1-tigliaen-3-one] | 218 ± 21 | 1 | 2.1 ± 0.1 | 12.4 ± 0.2 | 4924 ± 366 | 85.8 ± 8.4 | 15.7 ± 0.9 | 33.6 ± 0.6 | 17190 ± 55 | 289.9 ± 18.6 | 44 ± 1.6 | 77.5 ± 9.1 | 17275 ± 40 | 306.4 ± 9.0 | 8.1 ± 2.8 | 14.9 ± 1.1 | 4765 ± 999 | 53.9 ± 9.0 | 43.6 ± 6.1 | 12.5 ± 1.2 | % closure compared to control ([5]; 30 ng/mL): 209%; % closure compared to control ([5]; 200 ng/mL): 300%; IL-8 level ([3]; Donor 2, 30 ng/mL): 26288 ± 260 pg/mL; TNFα level ([3]; Donor 2, 30 ng/mL): 223 ± 11.2 pg/mL; IL-1β level ([3]; Donor 2, 300 ng/mL): 114.9 ± 2.4 pg/mL; IL-6 level ([3]; Donor 2, 300 ng/mL): 51.9 ± 1.3 pg/mL; IL-8 level ([3]; Donor 2, 300 ng/mL): 33870 ± 2532 pg/mL; TNFα level ([3]; Donor 2, 300 ng/mL): 620.9 ± 66.5 pg/mL; scarring of the healed site (mouse skin): minimal scarring; diameter of affected area of skin (mouse skin): approximately 1 cm
CCCC(=O)OC1C(C)C2(O)C(C3OC3(CO)C(O)C3(O)C(=O)C(C)=CC32)C2C(C)(C)C12OC(=O)C(C)CC (centres unmarked) [Compound 8, 12-butanoyl-13-(2-methylbutanoyl)-6,7-epoxy-4,5,9,12,13,20-hexahydroxy-1-tigliaen-3-one] | – | 10 | – | – | – | – | – | – | – | – | – | – | – | – | – | – | – | – | – | – | % closure compared to control ([4]; 200 ng/mL): 190%
